The text below walks through data of US9573957B2 (Boehringer Ingelheim International GmbH, priority 2013, dated 2017).

Assay [1] relates to synthesis of LTB4 in human whole blood. Put plainly: LTB4 production inhibition assay in human whole blood (HWB). The class given is cell-based. The settings on record: heparinized human whole blood, 15 min at 37° C., Calcimycin 20 μM 30 min, plasma LTB4 by HTRF. Put shortly:
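LTB4 in plasma read by HTRF immunoassay after centrifugation. Before that, compound sat with heparinized human whole blood 15 min at 37° C, followed by 30 min at 37° C with 20 μM (final) calcimycin.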

Assay [2] addresses human LTA4 hydrolase (Homo sapiens (Human), UniProt P09960). As to the kind of experiment: LTA4H Enzyme assay (peptidase, Arg-AMC cleavage). Format: biochemical. Conditions: LTA4H Enzyme 1 nM, Arg-AMC substrate 50 μM, room temperature 1 h, fluorescence. Put shortly:
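Aminomethylcoumarin release measured fluorimetrically (380/460 nm) after 1 h at room temperature. Reaction: 1 nM final enzyme, 50 μM final Arg-AMC and compound in Tris-HCl pH 7.5 with 100 mM KCl and 0.5% BSA.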

Chain of human LTA4 hydrolase (P09960 whole entry): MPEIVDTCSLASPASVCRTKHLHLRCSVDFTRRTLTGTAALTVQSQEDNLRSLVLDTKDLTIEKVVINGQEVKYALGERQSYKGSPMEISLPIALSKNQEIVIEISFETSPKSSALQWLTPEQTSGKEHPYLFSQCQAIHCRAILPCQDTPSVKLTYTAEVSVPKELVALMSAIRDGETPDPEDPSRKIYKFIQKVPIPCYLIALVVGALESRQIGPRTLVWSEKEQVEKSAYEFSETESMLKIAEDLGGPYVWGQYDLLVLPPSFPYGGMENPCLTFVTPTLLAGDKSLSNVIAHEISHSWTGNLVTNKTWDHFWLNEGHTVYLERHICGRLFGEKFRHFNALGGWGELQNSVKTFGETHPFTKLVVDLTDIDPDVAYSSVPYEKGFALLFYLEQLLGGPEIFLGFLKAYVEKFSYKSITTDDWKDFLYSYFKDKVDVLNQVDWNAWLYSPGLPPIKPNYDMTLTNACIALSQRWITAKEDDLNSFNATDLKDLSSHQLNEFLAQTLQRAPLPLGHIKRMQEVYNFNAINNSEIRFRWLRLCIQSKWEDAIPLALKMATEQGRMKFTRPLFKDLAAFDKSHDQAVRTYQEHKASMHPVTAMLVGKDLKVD

One may read the IC50 as the concentration that gives 50% inhibition. As to `C[C@@H](O)C(=O)N1CCN(CCc2coc3cc(Oc4ccc(-c5ccn[nH]5)cn4)ccc23)CC1` [Example 92, (R)-2-Hydroxy-1-[4-(2-{6-[5-(2H-pyrazol-3-yl)-pyridin-2-yloxy]-benzofuran-3-yl}-ethyl)-piperazin-1-yl]-propan-1-one], the IC50 in assay [1] came out at 470 nM; in assay [2], 1.1 nM.
The matching figures for `O=C(N1CCN(CCc2coc3cc(Oc4ccc(-c5ccn[nH]5)cn4)ccc23)CC1)C1(O)CC1` [Example 93, (1-Hydroxy-cyclopropyl)-[4-(2-{6-[5-(2H-pyrazol-3-yl)-pyridin-2-yloxy]-benzofuran-3-yl}-ethyl)-piperazin-1-yl]-methanone]: 530 nM and 0.91 nM.
Regarding `C[C@@H](O)C(=O)N1CCN(Cc2cn3cc(Oc4ccc(-c5ccn[nH]5)cc4)ccc3n2)CC1` [Example 94, (R)-2-Hydroxy-1-(4-{6-[4-(2H-pyrazol-3-yl)-phenoxy]-imidazo[1,2-a]pyridin-2-ylmethyl}-piperazin-1-yl)-propan-1-one], the figures for the IC50 in assay [1] and in assay [2] were 350 nM and 0.87 nM, respectively.
As for `CC(=O)N1CCN(Cc2cn3cc(Oc4ccc(-c5ccn[nH]5)cc4)ccc3n2)CC1` [Example 95, 1-(4-{6-[4-(2H-Pyrazol-3-yl)-phenoxy]-imidazo[1,2-a]pyridin-2-ylmethyl}-piperazin-1-yl)-ethanone], the half-inhibitory concentration (IC50) in assay [1] was determined as 280 nM; in assay [2], 0.59 nM.
The matching figures for `O=C(N1CCN(Cc2cn3cc(Oc4ccc(-c5ccn[nH]5)cc4)ccc3n2)CC1)C1(O)CC1` [Example 96, (1-Hydroxy-cyclopropyl)-(4-{6-[4-(2H-pyrazol-3-yl)-phenoxy]-imidazo[1,2-a]pyridin-2-ylmethyl}-piperazin-1-yl)-methanone]: 990 nM and 1.2 nM.
`CC(=O)N1CCCN(Cc2coc3cc(Oc4ccc(-c5ccn[nH]5)cn4)ccc23)CC1` [Example 97, 1-(4-{6-[5-(2H-Pyrazol-3-yl)-pyridin-2-yloxy]-benzofuran-3-ylmethyl}-[1,4]diazepan-1-yl)-ethanone]: the concentration for half-maximal inhibition (IC50) was determined as 210 nM in assay [1] and 0.58 nM in assay [2].
For the compound `CN(C(=O)CO)[C@@H]1CCN(Cc2ccc3cc(Oc4ccc(-c5ccn[nH]5)cn4)ccc3n2)C1` [Example 98], the values for the IC50 in assay [1] and in assay [2] were 120 nM and 0.72 nM, respectively.
Taken in the same sequence, the figures for `CN(C(=O)CO)[C@H]1CCN(Cc2ccc3cc(Oc4ccc(-c5ccn[nH]5)cn4)ccc3n2)C1` [Example 99] were 140 nM and 0.86 nM.
Taken in the same sequence, the figures for `CN(Cc1ccc2cc(Oc3ccc(-c4ccn[nH]4)cn3)ccc2n1)[C@@H]1CCN(C(=O)CO)C1` [Example 100, 2-Hydroxy-1-[(R)-3-(methyl-{6-[5-(2H-pyrazol-3-yl)-pyridin-2-yloxy]-quinolin-2-ylmethyl}-amino)-pyrrolidin-1-yl]-ethanone] were 170 nM and 0.92 nM.
Taken in the same sequence, the figures for `CN(Cc1ccc2cc(Oc3ccc(-c4ccn[nH]4)cn3)ccc2n1)[C@H]1CCN(C(=O)CO)C1` [Example 101, 2-Hydroxy-1-[(S)-3-(methyl-{6-[5-(2H-pyrazol-3-yl)-pyridin-2-yloxy]-quinolin-2-ylmethyl}-amino)-pyrrolidin-1-yl]-ethanone] were 230 nM and 2 nM.
As for `O=C(CO)N1CCC2(CCN(Cc3ccc4cc(Oc5ccc(-c6ccn[nH]6)cn5)ccc4n3)C2)C1` (centres unmarked) [Example 102, 2-Hydroxy-1-(7-{6-[5-(2H-pyrazol-3-yl)-pyridin-2-yloxy]-quinolin-2-ylmethyl}-2,7-diaza-spiro[4.4]non-2-yl)-ethanone], the IC50 was determined as 150 nM in assay [1] and 0.66 nM in assay [2].
Taken in the same sequence, the figures for `CNC(=O)C1CCN(Cc2coc3cc(Oc4ccc(-c5ccn[nH]5)cn4)ccc23)CC1` [Example 103, 1-{6-[5-(2H-Pyrazol-3-yl)-pyridin-2-yloxy]-benzofuran-3-ylmethyl}-piperidine-4-carboxylic acid methylamide] were 170 nM and 0.49 nM.
The matching figures for `CC(=O)NC1CCN(Cc2coc3cc(Oc4ccc(-c5ccn[nH]5)cn4)ccc23)CC1` [Example 104, N-(1-{6-[5-(2H-Pyrazol-3-yl)-pyridin-2-yloxy]-benzofuran-3-ylmethyl}-piperidin-4-yl)-acetamide]: 150 nM and 0.56 nM.
The matching figures for `CS(=O)(=O)NC1CCN(Cc2coc3cc(Oc4ccc(-c5ccn[nH]5)cn4)ccc23)CC1` [Example 105, N-(1-{6-[5-(2H-Pyrazol-3-yl)-pyridin-2-yloxy]-benzofuran-3-ylmethyl}-piperidin-4-yl)-methanesulfonamide]: 210 nM and 0.81 nM.
On to `CC(=O)NCC1CCN(Cc2coc3cc(Oc4ccc(-c5ccn[nH]5)cn4)ccc23)CC1` [Example 106, N-(1-{6-[5-(2H-Pyrazol-3-yl)-pyridin-2-yloxy]-benzofuran-3-ylmethyl}-piperidin-4-ylmethyl)-acetamide], for which the IC50 in assay [1] worked out at 120 nM; in assay [2], 0.38 nM.
On to `CC(=O)N1CCC(CNCc2coc3cc(Oc4ccc(-c5ccn[nH]5)cn4)ccc23)CC1` [Example 107, 1-{4-[({6-[5-(2H-Pyrazol-3-yl)-pyridin-2-yloxy]-benzofuran-3-ylmethyl}-amino)-methyl]-piperidin-1-yl}-ethanone], for which the half-inhibitory concentration (IC50) in assay [1] came to 210 nM; in assay [2], 0.7 nM.
As for `CC(=O)N1CCC(NCc2coc3cc(Oc4ccc(-c5ccn[nH]5)cn4)ccc23)CC1` [Example 108, 1-[4-({6-[5-(2H-Pyrazol-3-yl)-pyridin-2-yloxy]-benzofuran-3-ylmethyl}-amino)-piperidin-1-yl]-ethanone], the IC50 in assay [1] amounted to 180 nM; in assay [2] it was 0.71 nM.
With `O=C1[C@@H](O)CCN1C1CCN(Cc2coc3cc(Oc4ccc(-c5ccn[nH]5)cn4)ccc23)CC1` [Example 109, (S)-3-Hydroxy-1-(1-{6-[5-(2H-pyrazol-3-yl)-pyridin-2-yloxy]-benzofuran-3-ylmethyl}-piperidin-4-yl)-pyrrolidin-2-one], the IC50 turned out to be 140 nM in assay [1] and 0.36 nM in assay [2].
Taken in the same sequence, the figures for `CN1CCC2(CCN(Cc3coc4cc(Oc5ccc(-c6ccn[nH]6)cn5)ccc34)CC2)C1=O` [Example 110, 2-Methyl-8-{6-[5-(2H-pyrazol-3-yl)-pyridin-2-yloxy]-benzofuran-3-ylmethyl}-2,8-diaza-spiro[4.5]decan-1-one] were 130 nM and 0.22 nM.
In the case of `O=C(CN1CCN(Cc2coc3cc(Oc4ccc(-c5ccn[nH]5)cn4)ccc23)CC1)N1CCCC1` [Example 111, 2-(4-{6-[5-(2H-Pyrazol-3-yl)-pyridin-2-yloxy]-benzofuran-3-ylmethyl}-piperazin-1-yl)-1-pyrrolidin-1-yl-ethanone], the figures for the concentration for half-maximal inhibition (IC50) in assay [1] and in assay [2] were 170 nM and 0.68 nM, respectively.
Turning to `CC(=O)N1CCN(C(=O)c2coc3cc(Oc4ccc(-c5ccn[nH]5)cn4)ccc23)CC1` [Example 112, 1-(4-{6-[5-(2H-Pyrazol-3-yl)-pyridin-2-yloxy]-benzofuran-3-carbonyl}-piperazin-1-yl)-ethanone], the half-maximal inhibitory concentration (IC50) in assay [1] is 350 nM; in assay [2], 1.9 nM.
In the case of `CN(C(=O)CO)[C@@H]1CCN(Cc2coc3cc(Oc4ccc(-c5ccn[nH]5)cn4)ccc23)C1` [Example 113, 2-Hydroxy-N-methyl-N-((R)-1-{6-[5-(2H-pyrazol-3-yl)-pyridin-2-yloxy]-benzofuran-3-ylmethyl}-pyrrolidin-3-yl)-acetamide], the figures for the half-inhibitory concentration (IC50) in assay [1] and in assay [2] were 160 nM and 0.42 nM, respectively.
On to `CN(C(=O)CO)[C@H]1CCN(Cc2coc3cc(Oc4ccc(-c5ccn[nH]5)cn4)ccc23)C1` [Example 114, 2-Hydroxy-N-methyl-N-((S)-1-{6-[5-(2H-pyrazol-3-yl)-pyridin-2-yloxy]-benzofuran-3-ylmethyl}-pyrrolidin-3-yl)-acetamide], for which the IC50 worked out at 150 nM in assay [1] and 0.56 nM in assay [2].
The matching figures for `O=C(CO)N1CCC2(CCN(Cc3coc4cc(Oc5ccc(-c6ccn[nH]6)cn5)ccc34)C2)C1` (centres unmarked) [Example 115, 2-Hydroxy-1-(7-{6-[5-(2H-pyrazol-3-yl)-pyridin-2-yloxy]-benzofuran-3-ylmethyl}-2,7-diaza-spiro[4.4]non-2-yl)-ethanone]: 120 nM and 0.43 nM.
The matching figures for `N#CC1(C(=O)N2CCN(Cc3ccc4cc(Oc5ccc(-c6ccn[nH]6)cn5)ccc4n3)CC2)CC1` [Example 116, 1-(4-{6-[5-(2H-Pyrazol-3-yl)-pyridin-2-yloxy]-quinolin-2-ylmethyl}-piperazine-1-carbonyl)-cyclopropanecarbonitrile]: 240 nM and 0.87 nM.
Taken in the same sequence, the figures for `C[C@H](O)CC(=O)N1CCN(Cc2ccc3cc(Oc4ccc(-c5ccn[nH]5)cn4)ccc3n2)CC1` [Example 117, (S)-3-Hydroxy-1-(4-{6-[5-(2H-pyrazol-3-yl)-pyridin-2-yloxy]-quinolin-2-ylmethyl}-piperazin-1-yl)-butan-1-one] were 670 nM and 3.7 nM.
For `CO[C@@H](C)C(=O)N1CCN(Cc2ccc3cc(Oc4ccc(-c5ccn[nH]5)cn4)ccc3n2)CC1` [Example 118, (S)-2-Methoxy-1-(4-{6-[5-(2H-pyrazol-3-yl)-pyridin-2-yloxy]-quinolin-2-ylmethyl}-piperazin-1-yl)-propan-1-one], the IC50 in assay [1] came out at 170 nM; in assay [2], 0.67 nM.
The matching figures for `O=C(N1CCN(Cc2ccc3cc(Oc4ccc(-c5ccn[nH]5)cn4)ccc3n2)CC1)C1(O)CCCC1` [Example 119, (1-Hydroxy-cyclopentyl)-(4-{6-[5-(2H-pyrazol-3-yl)-pyridin-2-yloxy]-quinolin-2-ylmethyl}-piperazin-1-yl)-methanone]: 1200 nM and 8.6 nM.
